# Laboratory results published in patent US10624897B2, “Chlorobenzene substituted azaaryl compounds” (TAIPEI MEDICAL UNIVERSITY, priority 2015, dated 2020).
# Columns and labels:
# Assay in all cases: Kinase binding assay (Kd)
# BMPR2 = target: T1, BMPR2 (Homo sapiens, UniProt Q13873)
# T1 construct: made in house; host or cells: E. coli BL21-derived host (T7 phage) or HEK-293
# Method: (§1) Kinase assays. For most assays, kinase-tagged T7 phage strains were prepared in an E. coli host derived from the BL21 strain. E. coli were grown to log-phase and infected with T7 phage and incubated with shaking at 32° C. until lysis. The lysates were centrifuged and filtered to remove cell debris. The remaining kinases were produced in HEK-293 cells and subsequently tagged with DNA for qPCR detection. […] The liganded beads were blocked with excess biotin and washed with blocking buffer (SeaBlock (Pierce), 1% BSA, 0.05% Tween 20, 1 mM DTT) to remove unbound ligand and to reduce non-specific binding. […] All reactions were performed in polystyrene 96-well plates in a final volume of 0.135 ml. […] The kinase concentration in the eluates was measured by qPCR.
# (§2) An 11-point 3-fold serial dilution of each test compound was prepared in 100% DMSO at 100× final test concentration and subsequently diluted to 1× in the assay (final DMSO concentration=1%). Most Kds were determined using a compound top concentration=30,000 nM.
# (§3) Binding constants (Kds) were calculated with a standard dose-response curve using the Hill equation: […]
# (§4) The Hill Slope was set to −1. Curves were fitted using a non-linear least square fit with the Levenberg-Marquardt algorithm.
# RET = target: T2, RET (Homo sapiens, UniProt P07949)
# T2 construct: made in house; host or cells: E. coli BL21-derived host (T7 phage) or HEK-293
# Method: as §1, §2, §3, §4
# PDGFRB = target: T3, PDGFRB (Homo sapiens, UniProt P09619)
# T3 construct: made in house; host or cells: E. coli BL21-derived host (T7 phage) or HEK-293
# Method: as §1, §2, §3, §4
# ADCK3 = target: T4, ADCK3 (Homo sapiens, UniProt Q8NI60)
# T4 construct: made in house; host or cells: E. coli BL21-derived host (T7 phage) or HEK-293
# Method: as §1, §2, §3, §4
# YANK3 = target: T5, YANK3 (Homo sapiens, UniProt Q86UX6)
# T5 construct: made in house; host or cells: E. coli BL21-derived host (T7 phage) or HEK-293
# Method: as §1, §2, §3, §4
# MEK2 = target: T6, MEK2 (Homo sapiens, UniProt P36507)
# T6 construct: made in house; host or cells: E. coli BL21-derived host (T7 phage) for most kinases, HEK-293 for the rest
# Method: as §1, §2, §3, §4
# ACVR1B = target: T7, ACVR1B (Homo sapiens, UniProt P36896)
# T7 construct: made in house; host or cells: E. coli BL21-derived host (T7 phage) or HEK-293
# Method: as §1, §2, §3, §4
# ROCK2 = target: T8, ROCK2 (Homo sapiens, UniProt O75116)
# T8 construct: made in house; host or cells: E. coli BL21-derived host (T7 phage) or HEK-293
# Method: as §1, §2, §3, §4
# EGFR = target: T9, EGFR (Homo sapiens, UniProt P00533)
# T9 construct: made in house; host or cells: E. coli BL21-derived host (T7 phage) or HEK-293
# Method: as §1, §2, §3, §4
# PDPK1 = target: T10, PDPK1 (Homo sapiens, UniProt O15530)
# T10 construct: made in house; host or cells: E. coli BL21-derived host (T7 phage) for most kinases, HEK-293 for the rest
# Method: as §1, §2, §3, §4
# FGFR1 = target: T11, FGFR1 (Homo sapiens, UniProt P11362)
# T11 construct: made in house; host or cells: E. coli BL21-derived host (T7 phage) or HEK-293
# Method: as §1, §2, §3, §4
# IKK-beta = target: T12, IKK-beta (Homo sapiens, UniProt O14920)
# T12 construct: made in house; host or cells: E. coli BL21-derived host (T7 phage) for most kinases, HEK-293 for the rest
# Method: as §1, §2, §3, §4
# TGFBR1 = target: T13, TGFBR1 (Homo sapiens, UniProt P36897)
# T13 construct: made in house; host or cells: E. coli BL21-derived host (T7 phage) or HEK-293
# Method: as §1, §2, §3, §4
# INSR = target: T14, INSR (Homo sapiens, UniProt P06213)
# T14 construct: made in house; host or cells: E. coli BL21-derived host (T7 phage) for most kinases, HEK-293 for the rest
# Method: as §1, §2, §3, §4
# CDK9 = target: T15, CDK9 (Homo sapiens, UniProt P50750)
# T15 construct: made in house; host or cells: E. coli BL21-derived host (T7 phage) or HEK-293
# Method: as §1, §2, §3, §4
# FGFR2 = target: T16, FGFR2 (Homo sapiens, UniProt P21802)
# T16 construct: made in house; host or cells: E. coli BL21-derived host (T7 phage) or HEK-293
# Method: as §1, §2, §3, §4
# ERK1 = target: T17, ERK1 (Homo sapiens, UniProt P27361)
# T17 construct: made in house; host or cells: E. coli BL21-derived host (T7 phage) for most kinases, HEK-293 for the rest
# Method: as §1, §2, §3, §4
# IKK-alpha = target: T18, IKK-alpha (Homo sapiens, UniProt O15111)
# T18 construct: made in house; host or cells: E. coli BL21-derived host (T7 phage) for most kinases, HEK-293 for the rest
# Method: as §1, §2, §3, §4
# AKT1 = target: T19, AKT1 (Homo sapiens, UniProt P31749)
# T19 construct: made in house; host or cells: E. coli BL21-derived host (T7 phage) or HEK-293
# Method: as §1, §2, §3, §4
# EPHA2 = target: T20, EPHA2 (Homo sapiens, UniProt P29317)
# T20 construct: made in house; host or cells: E. coli BL21-derived host (T7 phage) for most kinases, HEK-293 for the rest
# Method: as §1, §2, §3, §4
# CDK3 = target: T21, CDK3 (Homo sapiens, UniProt Q00526)
# T21 construct: made in house; host or cells: E. coli BL21-derived host (T7 phage) or HEK-293
# Method: as §1, §2, §3, §4
# TYK2 = target: T22, TYK2 (Homo sapiens, UniProt P29597)
# T22 construct: made in house; host or cells: E. coli BL21-derived host (T7 phage) or HEK-293
# Method: as §1, §2, §3, §4
# PIM2 = target: T23, PIM2 (Homo sapiens, UniProt Q9P1W9)
# T23 construct: made in house; host or cells: E. coli BL21-derived host (T7 phage) for most kinases, HEK-293 for the rest
# Method: as §1, §2, §3, §4
# MEK1 = target: T24, MEK1 (Homo sapiens, UniProt Q02750)
# T24 construct: made in house; host or cells: E. coli BL21-derived host (T7 phage) for most kinases, HEK-293 for the rest
# Method: as §1, §2, §3, §4
# AXL = target: T25, AXL (Homo sapiens, UniProt P30530)
# T25 construct: made in house; host or cells: E. coli BL21-derived host (T7 phage) or HEK-293
# Method: as §1, §2, §3, §4
# AURKB = target: T26, AURKB (Homo sapiens, UniProt Q96GD4)
# T26 construct: made in house; host or cells: E. coli BL21-derived host (T7 phage) or HEK-293
# Method: as §1, §2, §3, §4
# GSK3B = target: T27, GSK3B (Homo sapiens, UniProt P49841)
# T27 construct: made in house; host or cells: E. coli BL21-derived host (T7 phage) for most kinases, HEK-293 for the rest
# Method: as §1, §2, §3, §4
# TSSK1B = target: T28, TSSK1B (Homo sapiens, UniProt Q9BXA7)
# T28 construct: made in house; host or cells: E. coli BL21-derived host (T7 phage) or HEK-293
# Method: as §1, §2, §3, §4
# PDGFRA = target: T29, PDGFRA (Homo sapiens, UniProt P16234)
# T29 construct: made in house; host or cells: E. coli BL21-derived host (T7 phage) for most kinases, HEK-293 for the rest
# Method: as §1, §2, §3, §4
# PLK1 = target: T30, PLK1 (Homo sapiens, UniProt P53350)
# T30 construct: made in house; host or cells: E. coli BL21-derived host (T7 phage) or HEK-293
# Method: as §1, §2, §3, §4
# MLK1 = target: T31, MLK1 (Homo sapiens, UniProt P80192)
# T31 construct: made in house; host or cells: E. coli BL21-derived host (T7 phage) for most kinases, HEK-293 for the rest
# Method: as §1, §2, §3, §4
# PIM3 = target: T32, PIM3 (Homo sapiens, UniProt Q86V86)
# T32 construct: made in house; host or cells: E. coli BL21-derived host (T7 phage) or HEK-293
# Method: as §1, §2, §3, §4
# CSNK1D = target: T33, CSNK1D (Homo sapiens, UniProt P48730)
# T33 construct: made in house; host or cells: E. coli BL21-derived host (T7 phage) or HEK-293
# Method: as §1, §2, §3, §4
# IGF1R = target: T34, IGF1R (Homo sapiens, UniProt P08069)
# T34 construct: made in house; host or cells: E. coli BL21-derived host (T7 phage) for most kinases, HEK-293 for the rest
# Method: as §1, §2, §3, §4
# p38-beta = target: T35, p38-beta (Homo sapiens, UniProt Q15759)
# T35 construct: made in house; host or cells: E. coli BL21-derived host (T7 phage) for most kinases, HEK-293 for the rest
# Method: as §1, §2, §3, §4
# PIK3CG = target: T36, PIK3CG (Homo sapiens, UniProt P48736)
# T36 construct: made in house; host or cells: E. coli BL21-derived host (T7 phage) for most kinases, HEK-293 for the rest
# Method: as §1, §2, §3, §4
# MAPKAPK2 = target: T37, MAPKAPK2 (Homo sapiens, UniProt P49137)
# T37 construct: made in house; host or cells: E. coli BL21-derived host (T7 phage) for most kinases, HEK-293 for the rest
# Method: as §1, §2, §3, §4
# T18 sequence (O15111 whole entry): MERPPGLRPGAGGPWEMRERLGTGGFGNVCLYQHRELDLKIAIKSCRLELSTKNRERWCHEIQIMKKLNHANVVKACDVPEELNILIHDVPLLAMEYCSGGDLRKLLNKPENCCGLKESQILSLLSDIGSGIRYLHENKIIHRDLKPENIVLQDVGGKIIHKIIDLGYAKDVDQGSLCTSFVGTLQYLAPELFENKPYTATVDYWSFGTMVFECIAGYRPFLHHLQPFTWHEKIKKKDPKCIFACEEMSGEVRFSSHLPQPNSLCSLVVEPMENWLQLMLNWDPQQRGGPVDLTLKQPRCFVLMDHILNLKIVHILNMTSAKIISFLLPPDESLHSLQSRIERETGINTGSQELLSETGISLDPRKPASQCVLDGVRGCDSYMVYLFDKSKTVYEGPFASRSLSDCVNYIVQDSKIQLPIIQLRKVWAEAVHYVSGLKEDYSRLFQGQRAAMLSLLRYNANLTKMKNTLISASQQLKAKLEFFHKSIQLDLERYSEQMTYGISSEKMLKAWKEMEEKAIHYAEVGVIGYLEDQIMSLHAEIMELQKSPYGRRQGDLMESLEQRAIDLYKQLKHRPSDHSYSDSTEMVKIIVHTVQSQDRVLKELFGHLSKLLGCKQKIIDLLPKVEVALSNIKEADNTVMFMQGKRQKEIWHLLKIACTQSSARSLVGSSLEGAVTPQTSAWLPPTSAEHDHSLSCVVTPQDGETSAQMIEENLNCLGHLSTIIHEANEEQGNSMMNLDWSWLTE
# T25 sequence (P30530 26-894): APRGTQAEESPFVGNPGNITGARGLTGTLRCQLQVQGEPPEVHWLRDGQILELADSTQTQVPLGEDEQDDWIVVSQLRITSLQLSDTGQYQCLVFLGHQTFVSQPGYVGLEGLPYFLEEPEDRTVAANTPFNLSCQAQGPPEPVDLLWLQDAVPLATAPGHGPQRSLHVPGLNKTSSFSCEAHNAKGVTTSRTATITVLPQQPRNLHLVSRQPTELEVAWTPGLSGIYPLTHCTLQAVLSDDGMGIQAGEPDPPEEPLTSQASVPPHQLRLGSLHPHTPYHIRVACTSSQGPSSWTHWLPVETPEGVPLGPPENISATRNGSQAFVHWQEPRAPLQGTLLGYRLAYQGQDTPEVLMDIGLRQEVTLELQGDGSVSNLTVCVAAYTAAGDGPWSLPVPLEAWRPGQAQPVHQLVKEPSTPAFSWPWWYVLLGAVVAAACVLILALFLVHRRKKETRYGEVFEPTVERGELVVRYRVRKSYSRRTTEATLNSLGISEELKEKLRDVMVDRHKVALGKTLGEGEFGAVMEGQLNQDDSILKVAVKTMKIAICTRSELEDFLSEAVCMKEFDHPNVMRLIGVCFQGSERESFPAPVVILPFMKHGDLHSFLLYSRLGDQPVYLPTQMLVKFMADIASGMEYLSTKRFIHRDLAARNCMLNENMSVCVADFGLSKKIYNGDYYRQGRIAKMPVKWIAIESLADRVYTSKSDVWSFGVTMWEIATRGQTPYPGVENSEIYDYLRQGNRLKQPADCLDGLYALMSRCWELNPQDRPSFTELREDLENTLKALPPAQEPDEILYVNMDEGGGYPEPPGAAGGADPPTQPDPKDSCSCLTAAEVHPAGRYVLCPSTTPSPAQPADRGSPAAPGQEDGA
# T15 sequence (P50750 whole entry): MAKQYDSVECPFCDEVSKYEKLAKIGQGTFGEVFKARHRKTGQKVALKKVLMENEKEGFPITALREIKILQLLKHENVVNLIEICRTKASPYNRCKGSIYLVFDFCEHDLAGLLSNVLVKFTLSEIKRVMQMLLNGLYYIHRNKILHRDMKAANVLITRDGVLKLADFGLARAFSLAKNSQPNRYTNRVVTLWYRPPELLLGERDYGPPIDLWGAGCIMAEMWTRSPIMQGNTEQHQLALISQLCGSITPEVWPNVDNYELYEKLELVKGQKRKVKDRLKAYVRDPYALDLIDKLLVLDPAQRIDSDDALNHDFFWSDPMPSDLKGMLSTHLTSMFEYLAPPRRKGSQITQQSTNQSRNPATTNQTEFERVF
# T34 sequence (P08069 31-1367): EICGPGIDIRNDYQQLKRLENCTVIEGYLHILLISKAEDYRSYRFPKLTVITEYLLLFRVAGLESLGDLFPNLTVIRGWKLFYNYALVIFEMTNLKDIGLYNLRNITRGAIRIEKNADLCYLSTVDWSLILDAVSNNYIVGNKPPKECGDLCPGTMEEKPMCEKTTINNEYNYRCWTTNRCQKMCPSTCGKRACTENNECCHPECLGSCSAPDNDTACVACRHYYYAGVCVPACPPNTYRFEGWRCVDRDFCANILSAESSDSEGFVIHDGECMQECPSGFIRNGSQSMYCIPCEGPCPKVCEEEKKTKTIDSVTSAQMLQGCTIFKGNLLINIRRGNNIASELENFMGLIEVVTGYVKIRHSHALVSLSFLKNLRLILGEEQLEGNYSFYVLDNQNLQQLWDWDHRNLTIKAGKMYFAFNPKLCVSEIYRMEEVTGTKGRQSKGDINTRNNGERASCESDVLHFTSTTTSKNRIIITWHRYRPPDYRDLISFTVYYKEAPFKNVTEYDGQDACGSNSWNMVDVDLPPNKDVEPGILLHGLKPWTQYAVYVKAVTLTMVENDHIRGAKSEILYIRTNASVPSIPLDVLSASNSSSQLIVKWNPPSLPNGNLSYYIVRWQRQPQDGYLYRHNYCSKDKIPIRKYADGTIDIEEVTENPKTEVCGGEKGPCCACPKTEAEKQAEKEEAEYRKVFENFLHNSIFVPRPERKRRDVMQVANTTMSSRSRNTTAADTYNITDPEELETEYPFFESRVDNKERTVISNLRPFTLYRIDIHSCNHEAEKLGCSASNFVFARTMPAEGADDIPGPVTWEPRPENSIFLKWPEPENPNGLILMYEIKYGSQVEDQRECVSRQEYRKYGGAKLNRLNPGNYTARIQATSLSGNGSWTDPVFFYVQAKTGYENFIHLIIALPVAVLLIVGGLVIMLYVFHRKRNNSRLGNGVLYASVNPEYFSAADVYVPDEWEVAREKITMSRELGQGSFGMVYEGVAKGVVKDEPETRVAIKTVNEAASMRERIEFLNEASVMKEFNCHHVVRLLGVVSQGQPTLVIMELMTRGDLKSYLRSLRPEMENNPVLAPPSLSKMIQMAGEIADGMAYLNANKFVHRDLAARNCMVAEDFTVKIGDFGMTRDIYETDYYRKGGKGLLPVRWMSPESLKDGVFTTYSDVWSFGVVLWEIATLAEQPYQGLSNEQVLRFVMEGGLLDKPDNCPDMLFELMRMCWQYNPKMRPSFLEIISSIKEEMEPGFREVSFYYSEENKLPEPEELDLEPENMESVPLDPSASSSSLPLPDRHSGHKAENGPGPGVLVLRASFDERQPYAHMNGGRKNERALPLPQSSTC
# T16 sequence (P21802 22-821): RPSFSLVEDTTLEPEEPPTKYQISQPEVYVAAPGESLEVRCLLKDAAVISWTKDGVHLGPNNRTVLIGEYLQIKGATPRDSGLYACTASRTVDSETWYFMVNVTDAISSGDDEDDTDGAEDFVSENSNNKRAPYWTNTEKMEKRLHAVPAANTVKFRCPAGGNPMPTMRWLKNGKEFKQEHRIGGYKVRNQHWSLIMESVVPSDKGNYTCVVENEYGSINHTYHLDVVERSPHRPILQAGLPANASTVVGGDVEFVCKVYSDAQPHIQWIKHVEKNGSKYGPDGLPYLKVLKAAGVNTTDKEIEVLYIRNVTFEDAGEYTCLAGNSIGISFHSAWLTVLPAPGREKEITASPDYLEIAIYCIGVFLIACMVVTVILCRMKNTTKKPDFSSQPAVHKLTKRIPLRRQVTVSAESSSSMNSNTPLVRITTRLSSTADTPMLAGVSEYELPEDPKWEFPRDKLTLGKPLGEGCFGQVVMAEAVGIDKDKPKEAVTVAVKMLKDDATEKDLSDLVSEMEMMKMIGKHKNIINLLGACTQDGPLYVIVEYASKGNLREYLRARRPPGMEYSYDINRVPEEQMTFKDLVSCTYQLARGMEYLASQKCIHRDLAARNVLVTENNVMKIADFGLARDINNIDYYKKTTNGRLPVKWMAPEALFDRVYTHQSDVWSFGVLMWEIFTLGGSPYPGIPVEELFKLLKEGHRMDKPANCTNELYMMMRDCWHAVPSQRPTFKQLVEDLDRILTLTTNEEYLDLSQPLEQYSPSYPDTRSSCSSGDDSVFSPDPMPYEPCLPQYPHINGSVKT
# T30 sequence (P53350 whole entry): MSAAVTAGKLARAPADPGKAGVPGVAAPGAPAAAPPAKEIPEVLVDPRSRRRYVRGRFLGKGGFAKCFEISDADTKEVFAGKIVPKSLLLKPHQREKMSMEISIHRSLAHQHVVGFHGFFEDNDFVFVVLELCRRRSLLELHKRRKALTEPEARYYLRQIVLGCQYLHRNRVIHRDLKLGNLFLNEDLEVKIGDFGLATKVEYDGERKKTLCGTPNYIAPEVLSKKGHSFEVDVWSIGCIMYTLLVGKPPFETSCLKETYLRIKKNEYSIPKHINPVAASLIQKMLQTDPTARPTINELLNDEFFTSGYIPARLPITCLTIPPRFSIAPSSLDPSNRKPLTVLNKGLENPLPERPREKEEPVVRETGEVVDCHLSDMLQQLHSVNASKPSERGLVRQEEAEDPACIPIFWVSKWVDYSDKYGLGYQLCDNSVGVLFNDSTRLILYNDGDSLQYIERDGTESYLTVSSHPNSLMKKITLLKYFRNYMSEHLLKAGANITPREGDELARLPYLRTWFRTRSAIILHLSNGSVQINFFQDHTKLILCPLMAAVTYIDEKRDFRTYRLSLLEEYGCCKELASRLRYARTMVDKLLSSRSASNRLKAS
# T26 sequence (Q96GD4 whole entry): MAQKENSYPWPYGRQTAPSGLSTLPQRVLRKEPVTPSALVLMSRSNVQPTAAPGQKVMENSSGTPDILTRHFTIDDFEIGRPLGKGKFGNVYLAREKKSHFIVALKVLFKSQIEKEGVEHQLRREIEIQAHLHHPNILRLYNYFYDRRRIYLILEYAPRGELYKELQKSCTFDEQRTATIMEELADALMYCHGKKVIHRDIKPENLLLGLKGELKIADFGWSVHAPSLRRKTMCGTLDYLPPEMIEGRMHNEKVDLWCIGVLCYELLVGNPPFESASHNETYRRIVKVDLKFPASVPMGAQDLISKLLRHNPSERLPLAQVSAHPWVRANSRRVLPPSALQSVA
smiles,measurement,setting,value
"CCN1CCN(c2ccc(Nc3ncnc(N(C)C(=O)Nc4c(Cl)c(OC)c(Cl)c(OC)c4Cl)n3)cc2)CC1 [MPT0L145, 1-(4-((4-(4-ethylpiperazin-1-yl)phenyl)amino)-1,3,5-triazin-2-yl)-1-methyl-3-(2,4,6-trichloro-3,5-dimethoxyphenyl)urea]",Kd,BMPR2,> 10 µM
same,Kd,RET,> 10 µM
same,Kd,PDGFRB,0.68 µM
same,Kd,ADCK3,> 10 µM
same,Kd,YANK3,> 10 µM
same,Kd,MEK2,> 10 µM
same,Kd,ACVR1B,> 10 µM
same,Kd,ROCK2,> 10 µM
same,Kd,EGFR,> 10 µM
same,Kd,PDPK1,> 10 µM
same,Kd,FGFR1,0.13 µM
same,Kd,IKK-beta,> 10 µM
same,Kd,TGFBR1,> 10 µM
same,Kd,INSR,> 10 µM
same,Kd,CDK9,> 10 µM
same,Kd,FGFR2,0.67 µM
same,Kd,ERK1,> 10 µM
same,Kd,IKK-alpha,> 10 µM
same,Kd,AKT1,> 10 µM
same,Kd,EPHA2,> 10 µM
same,Kd,CDK3,> 10 µM
same,Kd,TYK2,0.66 µM
same,Kd,PIM2,> 10 µM
same,Kd,MEK1,> 10 µM
same,Kd,AXL,> 10 µM
same,Kd,AURKB,> 10 µM
same,Kd,GSK3B,> 10 µM
same,Kd,TSSK1B,> 10 µM
same,Kd,PDGFRA,> 10 µM
same,Kd,PLK1,> 10 µM
same,Kd,MLK1,> 10 µM
same,Kd,PIM3,> 10 µM
same,Kd,CSNK1D,> 10 µM
same,Kd,IGF1R,> 10 µM
same,Kd,p38-beta,> 10 µM
same,Kd,PIK3CG,> 10 µM
same,Kd,MAPKAPK2,> 10 µM
